Measured values as given in ChEMBL document CHEMBL2321685, “Lead optimization of isocytosine-derived xanthine oxidase inhibitors” (Bioorg Med Chem Lett, 2013).
The source made the active and inactive calls. No cut-off for these calls is given here.

How the values were obtained:
[1] = AUClast in Sprague-Dawley rat at 10 mg/kg, po; assay type: ADME, organism-based; parameters: time 0 - last, dose 10 mg/kg, route oral; conditions: plasma
Rattus norvegicus [2] = assay: Cmax in Sprague-Dawley rat assessed as 2-(4-(2-amino-6-hydroxypyrimidin-4-yl)-2-cyanophenoxy)-2-methylpropanoic acid level at 10 mg/kg, po; assay type: ADME, organism-based; parameters: dose 10 mg/kg, route oral; conditions: in vivo
[3] = target: Xanthine dehydrogenase/oxidase (Bos taurus, UniProt P80457)
Sequence of Xanthine dehydrogenase/oxidase (P80457 whole entry): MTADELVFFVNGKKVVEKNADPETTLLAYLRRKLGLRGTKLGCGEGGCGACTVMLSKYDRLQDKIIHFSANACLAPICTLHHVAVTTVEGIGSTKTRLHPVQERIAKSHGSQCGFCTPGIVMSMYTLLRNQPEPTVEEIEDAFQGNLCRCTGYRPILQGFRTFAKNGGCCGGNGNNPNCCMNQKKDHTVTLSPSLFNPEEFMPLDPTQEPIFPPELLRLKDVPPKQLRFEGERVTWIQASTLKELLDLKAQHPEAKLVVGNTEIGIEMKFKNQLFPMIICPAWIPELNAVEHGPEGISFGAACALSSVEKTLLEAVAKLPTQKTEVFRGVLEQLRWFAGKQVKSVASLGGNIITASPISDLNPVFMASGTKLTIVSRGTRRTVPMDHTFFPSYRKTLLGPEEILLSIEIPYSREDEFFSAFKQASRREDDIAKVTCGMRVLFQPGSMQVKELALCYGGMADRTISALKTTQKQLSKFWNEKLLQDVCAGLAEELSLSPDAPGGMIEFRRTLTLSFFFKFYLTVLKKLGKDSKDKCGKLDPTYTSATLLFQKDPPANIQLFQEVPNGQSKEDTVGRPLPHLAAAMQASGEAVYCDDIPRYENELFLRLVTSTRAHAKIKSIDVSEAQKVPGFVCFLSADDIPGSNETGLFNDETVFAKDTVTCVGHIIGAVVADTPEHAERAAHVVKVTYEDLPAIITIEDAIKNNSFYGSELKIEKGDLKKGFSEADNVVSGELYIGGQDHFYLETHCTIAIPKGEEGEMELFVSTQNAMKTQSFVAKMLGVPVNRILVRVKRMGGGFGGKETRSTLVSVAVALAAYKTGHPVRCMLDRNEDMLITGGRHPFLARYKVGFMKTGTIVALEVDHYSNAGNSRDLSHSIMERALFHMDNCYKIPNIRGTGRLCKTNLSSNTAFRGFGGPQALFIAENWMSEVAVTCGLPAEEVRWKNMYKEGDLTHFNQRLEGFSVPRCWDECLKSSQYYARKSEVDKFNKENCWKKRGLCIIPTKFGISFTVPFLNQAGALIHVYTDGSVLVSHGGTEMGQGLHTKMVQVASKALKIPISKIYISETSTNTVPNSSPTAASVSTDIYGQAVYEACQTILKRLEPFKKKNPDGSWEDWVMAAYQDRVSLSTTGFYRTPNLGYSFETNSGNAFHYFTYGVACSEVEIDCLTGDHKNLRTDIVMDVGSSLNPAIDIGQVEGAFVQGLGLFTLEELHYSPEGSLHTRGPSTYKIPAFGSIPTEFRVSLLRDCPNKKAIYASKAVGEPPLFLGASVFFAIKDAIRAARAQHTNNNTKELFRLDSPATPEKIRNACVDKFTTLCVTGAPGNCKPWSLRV
Description: Inhibition of bovine xanthine oxidase-mediated uric acid production after 30 mins by spectrophotometric analysis

Rattus norvegicus [4] = assay: AUClast in Sprague-Dawley rat assessed as 2-(4-(2-amino-6-hydroxypyrimidin-4-yl)-2-cyanophenoxy)-2-methylpropanoic acid level at 10 mg/kg, po; assay type: ADME, organism-based, Plasma; parameters: time 0 - last, dose 10 mg/kg, route oral; conditions: in vivo
[5] = (§1) Cmax in Sprague-Dawley rat at 10 mg/kg, po; assay type: ADME, organism-based; parameters: dose 10 mg/kg, route oral; conditions: Sprague-Dawley, in vivo
Rattus norvegicus [6] = assay: Tmax in Sprague-Dawley rat assessed as 2-(4-(2-amino-6-hydroxypyrimidin-4-yl)-2-cyanophenoxy)-2-methylpropanoic acid level at 10 mg/kg, po; assay type: ADME, organism-based; parameters: dose 10 mg/kg, route oral; conditions: in vivo
[7] = (§2) Metabolic stability in rat plasma assessed as compound remaining after 60 mins; assay type: ADME, cell-free; conditions: read-out: Stability
[8] = (§3) Metabolic stability in rat liver microsomes assessed as compound remaining after 60 mins; assay type: ADME, Microsome; conditions: liver microsomes, read-out: Stability
[9] = (§4) Metabolic stability in rat liver S9 fraction assessed as compound remaining after 60 mins; assay type: ADME, subcellular; conditions: liver S9 fraction, read-out: Stability
Rattus norvegicus [10] = assay: Elimination half life in Sprague-Dawley rat assessed as 2-(4-(2-amino-6-hydroxypyrimidin-4-yl)-2-cyanophenoxy)-2-methylpropanoic acid level at 10 mg/kg, po; assay type: ADME, organism-based; parameters: dose 10 mg/kg, route oral; conditions: in vivo
[11] = Tmax in Sprague-Dawley rat at 10 mg/kg, po; assay type: ADME, organism-based; parameters: dose 10 mg/kg, route oral; conditions: in vivo
[12] = Elimination half life in Sprague-Dawley rat at 10 mg/kg, po; assay type: ADME, organism-based; parameters: dose 10 mg/kg, route oral; conditions: in vivo, read-out: beta t1/2 (converted)
Rattus norvegicus [13] = assay: AUClast in Sprague-Dawley rat assessed as Methyl 4-((4-(2-amino-6-hydroxypyrimidin-4-yl)-2-cyanophenoxy)methyl)cyclohexanecarboxylate level at 10 mg/kg, po; assay type: ADME, organism-based, Plasma; parameters: time 0 - last, dose 10 mg/kg, route oral; conditions: in vivo
Rattus norvegicus [14] = assay: Cmax in Sprague-Dawley rat assessed as Methyl 4-((4-(2-amino-6-hydroxypyrimidin-4-yl)-2-cyanophenoxy)methyl)cyclohexanecarboxylate level at 10 mg/kg, po; assay type: ADME, organism-based; parameters: dose 10 mg/kg, route oral; conditions: in vivo
Rattus norvegicus [15] = assay: as §1; assay type: ADME, organism-based; parameters: dose 10 mg/kg, route oral; conditions: in vivo, BLD = below limit of detection
Rattus norvegicus [16] = assay: Antihyperuricemic activity in rat assessed as reduction in potassium oxonate-induced serum uric acid level at 50 mg/kg, po administered at 1 hr prior to potassium oxonate-challenge measured up to 5 hrs relative to control; assay type: functional, organism-based; parameters: dose 50 mg/kg
Rattus norvegicus [17] = assay: Elimination half life in Sprague-Dawley rat assessed as Methyl 4-((4-(2-amino-6-hydroxypyrimidin-4-yl)-2-cyanophenoxy)methyl)cyclohexanecarboxylate level at 10 mg/kg, po; assay type: ADME, organism-based; parameters: dose 10 mg/kg, route oral; conditions: in vivo
Rattus norvegicus [18] = assay: Tmax in Sprague-Dawley rat assessed as Methyl 4-((4-(2-amino-6-hydroxypyrimidin-4-yl)-2-cyanophenoxy)methyl)cyclohexanecarboxylate level at 10 mg/kg, po; assay type: ADME, organism-based; parameters: dose 10 mg/kg, route oral; conditions: in vivo
[19] = Initial plasma concentration in Sprague-Dawley rat at 2 mg/kg, iv; assay type: ADME, organism-based; parameters: dose 2 mg/kg, route intravenous
[20] = Oral bioavailability in Sprague-Dawley rat at 10 mg/kg; assay type: ADME, organism-based; conditions: in vivo
Rattus norvegicus [21] = assay: Antihyperuricemic activity in po dosed rat assessed as reduction in potassium oxonate-induced serum uric acid level administered at 1 hr prior to potassium oxonate-challenge measured up to 5 hrs; assay type: functional
Plasma = assay: as §2; assay type: ADME, cell-free; conditions: 1 h
Liver microsomes = assay: as §3; assay type: ADME, Microsome; conditions: microsomes, 1 h
Liver = assay: as §4; assay type: ADME, subcellular; conditions: s9, 1 h
[22] = AUClast in Sprague-Dawley rat at 2 mg/kg, iv; assay type: ADME, organism-based; parameters: time 0 - last, dose 2 mg/kg, route intravenous; conditions: plasma
Rattus norvegicus [23] = assay: Antihyperuricemic activity in rat assessed as reduction in potassium oxonate-induced serum uric acid level at 10 mg/kg, po administered at 1 hr prior to potassium oxonate-challenge measured up to 5 hrs relative to allopurinol; assay type: functional; parameters: scale not given: the % may be the effect or the level left
[24] = Elimination half life in Sprague-Dawley rat at 2 mg/kg, iv; assay type: ADME, organism-based; parameters: dose 2 mg/kg, route intravenous; conditions: in vivo, read-out: beta t1/2 (converted)
[25] = Volume of distribution in Sprague-Dawley rat at 2 mg/kg, iv; assay type: ADME, organism-based; parameters: dose 2 mg/kg, route intravenous; conditions: in vivo
[26] = Clearance in Sprague-Dawley rat at 2 mg/kg, iv; assay type: ADME, organism-based; parameters: dose 2 mg/kg, route intravenous; conditions: in vivo
[27] = Cmax in Sprague-Dawley rat at 2 mg/kg, iv; assay type: ADME, organism-based; parameters: dose 2 mg/kg, route intravenous; conditions: in vivo
Rattus norvegicus [28] = assay: Antihyperuricemic activity in rat assessed as reduction in potassium oxonate-induced serum uric acid level at 30 mg/kg, po administered at 1 hr prior to potassium oxonate-challenge measured up to 5 hrs relative to allopurinol; assay type: functional; parameters: scale not given: the % may be the effect or the level left
[29] = Tmax in Sprague-Dawley rat at 2 mg/kg, iv; assay type: ADME, organism-based; parameters: dose 2 mg/kg, route intravenous; conditions: in vivo

## COC(=O)C(C)(C)COc1ccc(-c2cc(=O)[nH]c(N)n2)cc1C#N
[1]
  AUC(0-t): 44.8 ng·h/mL
Rattus norvegicus [2]
  Cmax: 8460 nM
[3]
  IC50: 15 nM
Rattus norvegicus [4]
  AUClast: 22699.83 ng·h/mL
[5]
  Cmax: 40 nM
Rattus norvegicus [6]
  Tmax: 4 h
[7]
  remaining at 1 h: 30.2%
[8]
  remaining at 1 h: 95.9%
[9]
  remaining at 1 h: 93.6%
Rattus norvegicus [10]
  beta t1/2: 11.6 h
[11]
  Tmax: 0.75 h
[12]
  half-life: 2.04 h

## COC(=O)C1CCC(COc2ccc(-c3cc(O)nc(N)n3)cc2C#N)CC1 (centres undefined)
Rattus norvegicus [13]
  AUClast: 795.24 ng·h/mL
[3]
  IC50: 19 nM
Rattus norvegicus [14]
  Cmax: 340 nM
Rattus norvegicus [15]
  Cmax: BLD
[7]
  remaining at 1 h: 0%
Rattus norvegicus [16]
  Activity: Active
[8]
  remaining at 1 h: 0%
[9]
  remaining at 1 h: 0%
Rattus norvegicus [17]
  beta t1/2: 3.9 h
Rattus norvegicus [18]
  Tmax: 2 h

## N#Cc1cc(-c2cc(=O)[nH]c(N)n2)ccc1OCC1CCC(C(=O)O)CC1 (centres undefined)
[1]
  AUC(0-t): 119 ng·h/mL
[3]
  IC50: 9 nM
[5]
  Cmax: 50 nM
[7]
  remaining at 1 h: 106%
[8]
  remaining at 1 h: 90.6%
[9]
  remaining at 1 h: 101%
[11]
  Tmax: 4 h

## Cc1nc(O)cc(-c2ccc(OCC(C)C)c(C#N)c2)n1
[3]
  IC50: > 30000 nM

## N#Cc1cc(-c2ccnc(N)n2)ccc1OCc1ccc(F)cc1
[3]
  IC50: 150 nM

## N#Cc1cc(-c2ccnc(N)n2)ccc1OCC1CCC1
[3]
  IC50: 400 nM

## CC(C)(C)c1ccc(COc2ccc(-c3cc(=O)[nH]c(N)n3)cc2C#N)cc1
[3]
  IC50: 19 nM

## CC(C)C(C)Oc1ccc(-c2cc(O)nc(N)n2)cc1C#N (centres undefined)
[3]
  IC50: 13 nM

## N#Cc1cc(-c2cc(=O)[nH]c(N)n2)ccc1OCc1ccccc1
[3]
  IC50: 17 nM

## N#Cc1cc(-c2cc(O)nc(N)n2)ccc1OCc1ccccc1C(F)(F)F
[3]
  IC50: 9 nM

## N#Cc1cc(-c2ccnc(N)n2)ccc1OCc1ccc(F)cc1C(F)(F)F
[3]
  IC50: 80 nM

## N#Cc1cc(-c2ccnc(N)n2)ccc1OCc1ccccc1C(F)(F)F
[3]
  IC50: 60 nM

## N#Cc1cc(-c2cc(=O)[nH]c(N)n2)ccc1OCC1CCC1
[3]
  IC50: 18 nM

## CC(C)(COc1ccc(-c2cc(O)nc(N)n2)cc1C#N)C(=O)O
[1]
  AUC(0-t): 19500 ng·h/mL
[3]
  IC50: 5 nM
[5]
  Cmax: 6600 nM
[7]
  remaining at 1 h: 33.9%
[8]
  remaining at 1 h: 90.2%
[9]
  remaining at 1 h: 98.9%
[12]
  half-life: 4 h

## N#Cc1cc(-c2cc(=O)[nH]c(N)n2)ccc1OCc1ccc(F)cc1C(F)(F)F
[3]
  IC50: 11 nM

## N#Cc1cc(-c2ccnc(N)n2)ccc1OCC1CCCCC1
[3]
  IC50: 50 nM

## CC(C)COc1ccc(-c2cc(C(N)=O)nc(N)n2)cc1C#N
[3]
  IC50: 3900 nM

## CC(C)(C)COc1ccc(-c2cc(=O)[nH]c(N)n2)cc1C#N
[1]
  AUC(0-t): 297 ng·h/mL
[3]
  IC50: 4 nM
[5]
  Cmax: 160 nM
[7]
  remaining at 1 h: 99.7%
[11]
  Tmax: 0.5 h
[12]
  half-life: 10.7 h

## N#Cc1cc(-c2cc(=O)[nH]c(N)n2)ccc1OCc1ccc(C(=O)O)cc1
[3]
  IC50: 5 nM

## COc1ccc(-c2cc(O)nc(N)n2)cc1C#N
[3]
  IC50: 160 nM

## CCC(CC)COc1ccc(-c2cc(=O)[nH]c(N)n2)cc1C#N
[3]
  IC50: 10 nM

## COC(=O)C(C)(C)COc1ccc(-c2cc(O)nc(N)n2)cc1C#N
Rattus norvegicus [16]
  Activity: Active

## CC(C)COc1ccc(-c2cc(C(=O)O)nc(N)n2)cc1C#N
[3]
  IC50: 400 nM

## N#Cc1cc(-c2cc(O)nc(N)n2)ccc1OCC1CCCCC1
[1]
  AUC(0-t): 109 ng·h/mL
[3]
  IC50: 10 nM
[5]
  Cmax: 40 nM
[7]
  remaining at 1 h: 94%
[8]
  remaining at 1 h: 97.3%
[9]
  remaining at 1 h: 86.8%
[11]
  Tmax: 1 h
[12]
  half-life: 18 h

## CC(C)COc1ccc(-c2cc(=O)[nH]cn2)cc1C#N
[1]
  AUC(0-t): 416 ng·h/mL
[3]
  IC50: 60 nM
[5]
  Cmax: 1150 nM
[7]
  remaining at 1 h: 90.5%
[8]
  remaining at 1 h: 49.6%
[9]
  remaining at 1 h: 13.5%
[11]
  Tmax: 0.25 h
[12]
  half-life: 9.88 h

## CC(C)COc1ccc(-c2cc(=O)[nH]c(N)n2)cc1C#N
[19]
  C0: 1360 ng/mL
[7]
  remaining at 1 h: 96%
[20]
  bioavailability: 8.6%
[8]
  remaining at 1 h: 91.5%
[9]
  remaining at 1 h: 65.6%

## N#Cc1cc(-c2ccnc(N)n2)ccc1OCC1CCC(C(=O)O)CC1 (centres undefined)
Rattus norvegicus [21]
  Activity: Active
[3]
  IC50: 10 nM
Plasma
  Stability: Stable
Liver microsomes
  Stability: Stable
Liver
  Stability: Stable

## CC(C)COc1ccc(-c2cc(O)ncn2)cc1C#N
Rattus norvegicus [16]
  Activity: Active

## COC(=O)c1ccc(COc2ccc(-c3cc(O)nc(N)n3)cc2C#N)cc1
[3]
  IC50: 9 nM

## N#Cc1cc(-c2cc(O)nc(N)n2)ccc1OCc1ccc(F)cc1
[3]
  IC50: 7 nM

## CC(C)COc1ccc(-c2ccnc(N)n2)cc1C#N
[22]
  AUC(0-t): 2990 ng·h/mL
Rattus norvegicus [23]
  Activity: 49%
[24]
  half-life: 5.96 h
[1]
  AUC(0-t): 2000 ng·h/mL
Rattus norvegicus [21]
  Activity: Dose-dependent effect
  ED50: 10 mg/kg
[19]
  C0: 3720 ng/mL
[3]
  IC50: 80 nM
[5]
  Cmax: 4190 nM
[25]
  Vd: 5.5 L/kg
[26]
  clearance: 10.7 mL/min/kg
[7]
  remaining at 1 h: 88.4%
[20]
  bioavailability: 13.4%
[27]
  Cmax: 9940 nM
[8]
  remaining at 1 h: 21.2%
[9]
  remaining at 1 h: 71.3%
Rattus norvegicus [28]
  Activity: 70%
[11]
  Tmax: 0.75 h
[12]
  half-life: 1.35 h
[29]
  Tmax: 1.8 min

## COC(=O)C1CCC(COc2ccc(-c3ccnc(N)n3)cc2C#N)CC1 (centres undefined)
Rattus norvegicus [21]
  Activity: Active
[3]
  IC50: 10 nM
[7]
  remaining at 1 h: 28%
[8]
  remaining at 1 h: 0%
[9]
  remaining at 1 h: 11%
